Read-outs that look alike come from different tables or passages of the source.
Columns and labels:
Aspergillus niger lipase [1] = test: Fluorescence quenching of lipase (Stern-Volmer and double-logarithmic plots); type: binding; conditions: for binding affinity with Aspergillus niger lipase (order of magnitude): conclusion, unit not given; for ksv (Stern-Volmer constant): pH 7.4, ligand 50-400 μM; for kq (quenching rate constant): pH 7.4, τ0 10^-9 s
Procedure: (§1) Lipase and HSA were dialyzed against KCl- buffer (pH 7) for 24 hrs. Stock solution of lipase was prepared in 10 mM phosphate buffer at pH 7.4 to obtain a particular concentration. […] These samples were incubated at 298.0 K for about 24 hrs.
(§2) Fluorescence spectra were recorded on Hitachi F-4010 spectrofluorometer equipped with circulating water bath to maintain the temperature of the cell. The quartz cell of path length 1.0 cm and band slit of 5.0 nm were used for all experiments. The excitation wavelength was 280 nm for lipase and HSA. Emission spectra were recorded from 300–450 nm for lipase and HSA protein.
(§3) Herein, the fluorescence intensities were corrected for absorption of the exciting light and reabsorption of the emitted light to decrease the inner filter effect according to the following equation [10] (Chi & Liu, 2011): Fcorr=Fobs10^Aex+Aem/2, Where Fcorr and Fobs are corrected and experimentally measured fluorescence intensities, respectively. […] The fluorescence intensity utilized in this paper was the corrected intensity.
(§4) Emission fluorescence spectra were measured in the 300–450 nm interval, at a fixed excitation wavelength of 280 nm. Occurrence of an emission maximum at 344 nm in the fluorescence spectrum of lipase can be attributed to the presence of tryptophan residue of lipase. Even though the intrinsic fluorescence of pancreatic lipase is attributed to three amino acid residues, phenylalanine (Phe), tyrosine (Tyr), and tryptophan (Trp), the fluorescence of Phe and Tyr residues at this wavelength is negligible, so intrinsic fluorescence of the fungal enzyme is mainly due to Trp. […] Several earlier reports have shown similar fluorescence quenching of protein upon interaction with various drug molecules, without any shift in the emission maximum. The observed quenching in the protein fluorescence can be induced by a variety of molecular interactions such as rearrangement of molecules, ground-state complex formation, excited-state reactions, energy transfer and collisional quenching.
In order to gain insight into quenching mechanism involved in linalool-lipase, carvacrol- lipase and thymol- lipase interaction, or to gain further insight into the mechanism of tertiary structure we analysed the fluorescence quenching data using Stern–Volmer equation. […] S1A–S1C Fig and Table 1. gives ksv and kq values of Lipase—lin as 1.73 x 10^4 M^-1 and 1.73 x 10^13 M^-1s^-1, Lipase—car as 2.17 x 10^3 and 2.17 x 10^12, Lipase—thy as 1.76 x 10^4 and 1.76 x 10^13 respectively. […] Binding constant and number of binding sites were determined by plotting log (F0—F)/F versus log [ligand] according to equation: Log[(F0–F)/F=logKa+nlogligand] where Ka and n are binding constants and stoichiometry of association process respectively. Linear relationship is obtained from log(F− F0) / F versus log[ligand].

lipase = molecular target: T1, lipase; test: Intrinsic Trp fluorescence quenching of A. niger lipase (excitation 280 nm, ligand 50-400 uM, inner-filter corrected), 10 mM phosphate pH 7.4, samples incubated at 298 K for about 24 h; Ka from double-logarithmic plot.; type: binding
T1 construct: commercial (Sigma-Aldrich), dialyzed
Procedure: as §1, §2, §3
as §4, with “quenching. […]” for “quenching.”

HSA [2] = molecular target: T2, HSA (Homo sapiens, UniProt P02768); test: UV-Vis absorption spectroscopy of HSA; type: binding; design: purchased Sigma-Aldrich; conditions: HSA 0.4mg/ml, shifted from 278 nm, 298.15 K, pH 7.4
Excerpt: UV-visible absorbance spectra were obtained using JASCO, V-560 spectrophotometer in the wavelength range 240 to 340 nm. The baseline was corrected for each spectrum.

Aspergillus niger lipase [3] = test: Lipase inhibition assay with pNPP substrate; type: biochemical; conditions: for inhibition of lipase activity (in words): 0.5 mmoles/litre to 1.5 mmoles/litre, pNPP as substrate; for inhibition of lipase: 1.5 mmol/litre, para-nitrophenyl palmitate (pNPP) substrate, 37°C; for lipase activity: at about 1.5mmoles/litre
Procedure: Lipase assays were performed in a 96-well, clear, flat-bottomed plate with 200 μl reaction volume. pNPP was used as a substrate with a reaction buffer of 50 mM sodium phosphate, 5 mM sodium taurocholate, and 10% isopropanol at pH 8.0 [8, 9]. Lipase assays was performed in 200 μl reaction volume and substrate conversion was monitored with a Multiskan Go spectrophotometer (Thermo Scientific) at 410 nm. All assays were run at 37°C and reported results are the average of three replicates that were blank subtracted. The Lipase inhibitory activity was expressed as percentage inhibition calculated as: % Inhibition = [(Acontrol − Atest sample)/[…]]*100.
Significant inhibition was obtained at 0.5 mmoles/litre. For all three molecules indicating structural changes begin well below this concentration. According to all binding experiments have been performed in concentration range at 50 μM to 400 μM.

[4] = molecular target: T3, Human Serum Albumin (HSA) (Homo sapiens, UniProt P02768); test: Fluorescence quenching of HSA (Stern-Volmer and double-logarithmic plots); type: binding; conditions: for blue shift in the emission maximum of HSA: excitation 280nm, from 342 nm, throughout the titration
T3 construct: purchased Sigma-Aldrich
Procedure: as §1, §2, §3
(§5) The HSA were excited at 280nm and spectra were taken from 300nm to […].
The plot of F0/F against [linalool] at 298K is given as S3A Fig. The values of ksv and kq could be calculated from the slope of curves. The average lifetime of the fluorophore in the absence of the ligand as 6.38 × 10^−9 s for HSA [23]. […] Ka and ‘n’ were calculated from equation: Log[(F0–F)/F] = logKa + n log[linalool].

HSA [5] = molecular target: T2, HSA; test: Intrinsic Trp214 fluorescence quenching of HSA (excitation 280 nm, ligand 50-400 uM, inner-filter corrected), 10 mM phosphate pH 7.4, 298 K; Ka from double-logarithmic plot.; type: binding; design: gene ALB; commercial (Sigma-Aldrich), dialyzed; conditions: read-out: Ka(M^-1) (converted)
Procedure: as §1, §2, §3, §5
The plot of F0/F against [linalool] at 298K is given as S3A Fig. The values of ksv and kq could be calculated from the slope of curves. […] Ka and ‘n’ were calculated from equation: Log[(F0–F)/F] = logKa + n log[linalool].

[6] = molecular target: T3, Human Serum Albumin (HSA); test: Far-UV circular dichroism of HSA; conditions: 24 hours at 298.15 K, pH 7.4, native -17.76
Procedure: CD spectra were obtained over wavelength range of 200–250 nm on Jasco-1500 CD Spectrometer equipped with peltier type temperature controller. 0.1cm quartz cell were used to measure far UV CD spectrum. The concentration of protein used was 0.2 mg/ml (lipase) and 0.35 mg/ml (HSA). Each spectrum was scanned thrice and finally average of 3 was used to analyse the results.

T2 sequence (P02768 25-609): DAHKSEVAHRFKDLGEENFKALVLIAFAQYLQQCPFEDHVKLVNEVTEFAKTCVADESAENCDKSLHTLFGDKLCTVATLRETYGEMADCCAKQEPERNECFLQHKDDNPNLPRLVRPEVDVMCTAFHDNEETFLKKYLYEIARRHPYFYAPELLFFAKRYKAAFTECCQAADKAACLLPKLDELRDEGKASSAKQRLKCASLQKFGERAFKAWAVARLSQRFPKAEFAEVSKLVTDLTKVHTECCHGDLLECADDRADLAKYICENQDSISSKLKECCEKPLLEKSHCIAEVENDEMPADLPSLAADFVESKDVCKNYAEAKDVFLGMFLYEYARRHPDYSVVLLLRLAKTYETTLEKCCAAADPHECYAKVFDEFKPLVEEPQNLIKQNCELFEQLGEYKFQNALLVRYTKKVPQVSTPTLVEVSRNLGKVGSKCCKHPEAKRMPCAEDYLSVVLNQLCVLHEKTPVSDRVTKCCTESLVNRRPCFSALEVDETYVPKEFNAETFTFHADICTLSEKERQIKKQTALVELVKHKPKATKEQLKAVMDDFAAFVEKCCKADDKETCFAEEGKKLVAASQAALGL
T3 sequence (P02768 25-609): as above

Structure (SMILES) | strength of binding to lipase (in words) (Aspergillus niger lipase [1]) | binding affinity with Aspergillus niger lipase (order of magnitude) (Aspergillus niger lipase [1]) | ksv (Stern-Volmer constant) (Aspergillus niger lipase [1]; lipase) [M⁻¹] | kq (quenching rate constant) (Aspergillus niger lipase [1]; lipase) [M⁻¹ s⁻¹] | Ka (lipase) [M⁻¹] | maximum absorption peak position of ligand-HSA complex (HSA [2]) [nm] | inhibition of lipase activity (in words) (Aspergillus niger lipase [3]) | inhibition of lipase (Aspergillus niger lipase [3]) | lipase activity (Aspergillus niger lipase [3]) | Kd (HSA [5]) [µM] | Kd [4] [µM] | n (number of binding site) ([4]; HSA) | kq (quenching rate constant) ([4]; HSA, 298K) [M⁻¹ s⁻¹] | ksv (Stern-Volmer quenching constant) ([4]; HSA, 298K, ligand 50-400 μM) [M⁻¹] | blue shift in the emission maximum of HSA [4] [nm] | MRE x 10^3 at 222nm (complex_400 μM) [6] | other results
Cc1ccc(C(C)C)c(O)c1 [thymol] | strong binders | ~10^9 | 17600 | 1.76e+13 | 2.6e+09 | 278.4 | markedly inhibited lipase activity | approximately 50% | approximately 50% |  |  |  |  |  |  |  | kq (quenching rate constant) [4]: 3.21e+13 M⁻¹ s⁻¹; ksv (Stern-Volmer quenching constant) [4]: 32100 M⁻¹
Cc1ccc(C(C)C)cc1O [carvacrol] | strong binders | ~10^7 | 2170 | 2.17e+12 | 4.6e+07 | 278.2 | markedly inhibited lipase activity | approximately 50% | approximately 50% | 45.5 | ~100 | 1.29 | 2.33e+12 | 2330 | 1 | -24.91 | Ka (binding constant) (Aspergillus niger lipase [1]; lipase, pH 7.4, double-logarithmic plot): 4.66e+07 M⁻¹; Ka (binding constant) ([4]; HSA, double-logarithmic plot): 22000 M⁻¹
C=CC(C)(O)CCC=C(C)C (stereo not shown) [linalool] | weak binder | ~10^3 | 17300 | 1.73e+13 | 5300 | 278.5 | markedly inhibited lipase activity | approximately 50% | approximately 50% | 29.4 | ~100 | 1.36 | 3.32e+12 | 3320 | 2 | -23.13 | association constant / binding affinity with HSA (order of magnitude) ([4]; unit inferred): ~10000 M⁻¹

Source: publication PMC9135303, “Interaction of fungal lipase with potential phytotherapeutics” (PLoS ONE, 2022)
